Reference: patent US3985779A, “M-phenoxyphenyl propionic acid derivatives and preparation thereof” (Eisai Co., Ltd., priority 1973, dated 1976)

Test system: Kaolin-induced edema
Assay: Inhibitory activity on Kaolin-induced Edema in Rats (Experiment B)
Format: in vivo

CC(C(=O)O)c1cccc(Oc2ccccc2Cl)c1 (stereo not drawn) [Compound (5), 2-[m-(o-chlorophenoxy)phenyl]propionic acid]
% of Inhibition (after 3 hrs, oral 8 mg/kg): 20%
Edema D. ± S.E. (after 3 hrs, oral 8 mg/kg): .334 ± .069
% of Inhibition (after 3 hrs, oral 40 mg/kg): 52%
Edema D. ± S.E. (after 3 hrs, oral 40 mg/kg): .201 ± .021
% of Inhibition (after 5 hrs, oral 8 mg/kg): 21%
Edema D. ± S.E. (after 5 hrs, oral 8 mg/kg): .442 ± .045
% of Inhibition (after 5 hrs, oral 40 mg/kg): 57%
Edema D. ± S.E. (after 5 hrs, oral 40 mg/kg): .245 ± .017
% of Inhibition (after 7 hrs, oral 8 mg/kg): 7%
Edema D. ± S.E. (after 7 hrs, oral 8 mg/kg): .563 ± .060
% of Inhibition (after 7 hrs, oral 40 mg/kg): 51%
Edema D. ± S.E. (after 7 hrs, oral 40 mg/kg): .294 ± .035
